In brackets after ≈: the same amount, converted by molar mass. Like-named read-outs stand apart in the source and are kept apart here.
How the values were obtained:
[1] = THESA assay for determination of the thermodynamic solubility; format: physicochemical; conditions: 22.5 °C, aqueous buffer, thermodynamic from solid, second figure of the cell
Method: In addition, the compounds of the present invention have been tested in a THESA assay for determination of the thermodynamic solubility.
Approximately 2 mg of each compound was added in excess to a 50 mM phosphate buffer, at room temperature (22.5±1° C.). Each sample was placed in a microanalysis tube, which was sonicated for 1 h and agitated for 2 h. All suspensions were left overnight. At the next day all pHs were measured with a pH-meter and the samples filtered with a micronic filterplate (MSGVN2250) to separate the solid material from the solution. Then, all solutions were analyzed by HPLC. The calibration line was established by different concentrations of the compound in DMSO. From this regression equation the solubility of the compound was determined.

[2] = target: T1, γ-secretase (Homo sapiens, UniProt P49768); experiment: in vitro assay of γ-secretase activity (HEK293 membrane fraction, recombinant APP substrate, Abeta ELISA); format: biochemical; conditions: for Comments: potency (and THESA solubility) of the present example compared with the corresponding example from WO 2005/023772
T1 construct: HEK293 membrane fraction as a source of γ-secretase
Excerpt: Description of γ-secretase Assay
The activity of test compounds can be evaluated in assays which measure the proteolytic cleavage of suitable substrates by γ-secretase activity. These can be cellular assays where e.g., a substrate of the γ-secretase is fused in its cytoplasmic domain to a transcription factor. Cells are transfected with this fusion gene and a reporter gene, e.g., firefly luciferase, which expression is enhanced by the transcription factor. Cleavage of the fused substrate by γ-secretase will lead to expression of the reporter gene which can be monitored in appropriate assays. The γ-secretase activity can also be determined in cell-free in vitro assays where e.g., a cell lysate containing the γ-secretase complex is incubated with a suitable APP-derived substrate which is cleaved to the Abeta peptides. The amount of produced peptides can be determined with specific ELISA assays. Cell lines of neuronal origin secrete Abeta peptides which can be measured with the specific ELISA assay. Treatment with compounds which inhibit γ-secretase leads to a reduction of secreted Abeta thus providing a measure of inhibition.
The in vitro assay of γ-secretase activity uses a HEK293 membrane fraction as a source of γ-secretase and a recombinant APP substrate. Latter consist of the C-terminal 100 amino acids of human APP fused to a 6×Histidin tail for purification which is expressed in E.coli in a regulatable expression vector, e.g. pEt15. This recombinant protein corresponds to the truncated APP fragment which results after […] of the extracellular domain and which constitutes the γ-secretase substrate. The assay principle is described in Li Y M et al, PNAS 97(11), 6138-6143 (2000). Hek293 cells are mechanically disrupted and the microsomal fraction is isolated by differential centrifugation. The membranes are solubilized in detergent (0.25% CHAPSO) and incubated with the APP substrate. The Abeta peptides which are produced by γ-secretase cleavage of the substrate are detected by specific ELISA assays as described (Brockhaus M et al, Neuroreport 9(7), 1481-1486 (1998).

[3] = comparison compounds from WO 2005/023772, 50 mM phosphate buffer, room temperature, read-out: THESA (IC50/THESA, Corresponding Example from WO 2005/023772)
[4] = 50 mM phosphate buffer, room temperature (22.5±1° C.), read-out: THESA (IC50/THESA, Example No. present appl.)

solubility thermodynamic [1, 3] | Comments [2] | solubility thermodynamic [1, 4] | SMILES | further results
 |  | 19 µg/mL (≈ 40.3 µM) | C[C@@](O)(C(=O)NCC(F)(F)C(F)(F)F)C(=O)N[C@@H]1C(=O)Nc2ccccc2-c2ccccc21 [Example 1b, (R)-2-Hydroxy-2-methyl-N-((S)-6-oxo-6,7-dihydro-5H-dibenzo[b,d]azepin-7-yl)-N′-(2,2,3,3,3-pentafluoro-propyl)-malonamide] | 
 | Higher potency |  | CC(O)(C(=O)NCC(F)(F)C(F)(F)F)C(=O)N[C@@H]1C(=O)N(CC(F)(F)F)c2ccccc2-c2ccccc21 (mixture of isomers) [Example 12a] | 
 | Higher potency | 14 µg/mL (≈ 27.8 µM) | C[C@](O)(C(=O)NCC(F)(F)F)C(=O)N[C@@H]1C(=O)N(CC(F)(F)F)c2ccccc2-c2ccccc21 [Example 13b, (S)-2-Hydroxy-2-methyl-N-[(S)-6-oxo-5-(2,2,2-trifluoro-ethyl)-6,7-dihydro-5H-dibenzo[b,d]azepin-7-yl]-N′-(2,2,2-trifluoro-ethyl)-malonamide] | 
< 1 µg/mL |  |  | C[C@@](F)(C(=O)NCC(F)(F)C(F)(F)F)C(=O)N[C@H]1C(=O)Nc2ccccc2-c2ccccc21 [reference compound] | 
 |  | 14 µg/mL (≈ 29.7 µM) | C[C@](O)(C(=O)NCC(F)(F)C(F)(F)F)C(=O)N[C@@H]1C(=O)Nc2ccccc2-c2ccccc21 [Example 1c, (S)-2-Hydroxy-2-methyl-N-((S)-6-oxo-6,7-dihydro-5H-dibenzo[b,d]azepin-7-yl)-N′-(2,2,3,3,3-pentafluoro-propyl)-malonamide] | 

More lines, now with the values behind:

SMILES | solubility thermodynamic [1, 3] | Comments [2] | solubility thermodynamic [1, 4] | further results
CC(C)(C(=O)NCCC(F)(F)F)C(=O)N[C@H]1C(=O)Nc2ccccc2-c2ccccc21 [reference compound] | < 1 µg/mL |  |  | 
C[C@](O)(C(=O)NCCC(F)(F)F)C(=O)N[C@@H]1C(=O)Nc2ccccc2-c2ccccc21 [Example 2c, (S)-2-Hydroxy-2-methyl-N-((S)-6-oxo-6,7-dihydro-5H-dibenzo[b,d]azepin-7-yl)-N′-(3,3,3-trifluoro-propyl)-malonamide] |  | Higher potency, higher solubility | 127 µg/mL (≈ 292 µM) | 
C[C@](O)(C(=O)NCC(F)(F)F)C(=O)N[C@@H]1C(=O)Nc2ccccc2-c2ccccc21 [Example 3b, (S)-2-Hydroxy-2-methyl-N-((S)-6-oxo-6,7-dihydro-5H-dibenzo[b,d]azepin-7-yl)-N′-(2,2,2-trifluoro-ethyl)-malonamide] |  | Higher potency, higher solubility | 26 µg/mL (≈ 61.7 µM) | 
C[C@](F)(C(=O)NCC(F)(F)C(F)(F)F)C(=O)N[C@H]1C(=O)Nc2ccccc2-c2ccccc21 [reference compound] | < 1 µg/mL |  |  | 
CC(C)(C(=O)NCC(F)(F)F)C(=O)N[C@H]1C(=O)Nc2ccccc2-c2ccccc21 [reference compound] | 16 µg/mL (≈ 38.1 µM) |  |  | 
CCCC(O)(C(=O)NCCC(F)(F)F)C(=O)N[C@@H]1C(=O)Nc2ccccc2-c2ccccc21 (mixture of isomers) [Example 6a] |  | Higher potency |  | 
CCCC(C)(C(=O)NCCC(F)(F)F)C(=O)N[C@H]1C(=O)Nc2ccccc2-c2ccccc21 (stereo partly shown) [reference compound] |  |  |  | IC50 (IC50/THESA, Corresponding Example from WO 2005/023772) ([2]; first figure of the cell, comparison compounds from WO 2005/023772): nearly inactive/—
CCCC(O)(C(N)=O)C(=O)N(CCC(F)(F)F)[C@@H]1C(=O)Nc2ccccc2-c2ccccc21 (single isomer, unassigned) [Example 6g, (R or S)-2-Hydroxy-N-((S)-6-oxo-6,7-dihydro-5H-dibenzo[b,d]azepin-7-yl)-2-propyl-N-(3,3,3-trifluoro-propyl)-malonamide] |  | Higher potency |  | 
